Values of other authors, collected in US8685965B2, “CGRP receptor antagonists” (Merck Sharp & Dohme Corp., priority 2008, dated 2014).
Ends that are not written are not given here.

Columns and labels:
middle meningeal artery = settings: rats, prior administration; Williamson et al. 1997
facial blood flow [1] = settings: rat; Escott et al. 1995
facial blood flow [2] = settings: marmoset; Doods et al. 2000
[3] = tested on: acute attacks of migraine; settings: clinical trials; Olesen et al. 2004
[4] = tested on: headache induced by CGRP infusion; settings: control group; Petersen et al. 2005

Compound | effect on increase of middle meningeal artery diameter after electrical stimulation of the dura mater (middle meningeal artery) | effect on increase of facial blood flow after trigeminal ganglion stimulation (facial blood flow [1]) | effect on increase of facial blood flow after electrical stimulation of the trigeminal ganglion (facial blood flow [2]) | efficacy in treating acute attacks of migraine [3] | prevention of headache induced by CGRP infusion [4]
CGRP(8-37): a peptide CGRP antagonist; fragment of CGRP that lacks seven N-terminal amino acid residues (VTHRLAGLLSRSGGVVKNNFVPTNVGSKAF; ends and bridges not checked; UniProt P06881 90-119, looked up, fragment) | blocked | inhibited |  |  | 
NCCCC[C@H](NC(=O)[C@@H](Cc1cc(Br)c(O)c(Br)c1)NC(=O)N1CCC(N2Cc3ccccc3NC2=O)CC1)C(=O)N1CCN(c2ccncc2)CC1 [BIBN4096BS] |  |  | could be blocked | effective in treating acute attacks of migraine | able to prevent headache induced by CGRP infusion
